According to patent US9481654B2, “Compositions and methods for inhibition of the JAK pathway” (Rigel Pharmaceuticals, Inc., priority 2006, dated 2016):
Where a name gives a salt, the structure may show the parent alone.

Key:
[1] = system: primary human T-cells (IL-2 induced proliferation, JAK-1/JAK-3, Stat-5); assay: Primary Human T-Cell Proliferation Assay Stimulated with IL-2 (CellTiter-Glo); type: cell-based; settings: Table III Example 4
Protocol: In this assay, primary human T-cells derived from peripheral blood and pre-activated through stimulation of the T-cell receptor and CD28, proliferate in culture in response to the cytokine Interleukin-2 (IL-2). This proliferative response is dependent on the activation of JAK1 and JAK3 tyrosine kinases, which phosphorylate and activate the transcription factor Stat-5. The primary human T-cells are incubated with the 2,4-pyrimidinediamine compounds in the presence of IL-2 for 72 hours, and at the assay endpoint intracellular ATP concentrations are measured to assess cell viability. A reduction in cell proliferation compared to control conditions is indicative of inhibition of the JAK kinase pathway.
Primary human T-cells derived from peripheral blood and pre-activated through stimulation of the T-cell receptor and CD28 proliferate in vitro in response to the cytokine Interleukin-2 (IL-2). This proliferative response is dependent on the activation of JAK-1 and JAK-3 tyrosine kinases, which phosphorylate and activate the transcription factor Stat-5.
Human primary T cells were prepared as follows. […] The lymphocytes at the serum: ficoll interface were recovered and washed twice with 5 volumes of PBS. […] The primary T-cells were stimulated for 3 to 4 days, then transferred to a fresh flask and maintained in RPMI with 10% FBS and 40 U/mL IL-2.
Primary T-cells were washed twice with PBS to remove the IL-2 and resuspended in Yssel's medium at 2×10^6 cells/mL. 50 μL of cell suspension containing 80 U/mL IL-2 was added to each well of a flat bottom 96 well black plate. For the unstimulated control, IL-2 was omitted from the last column on the plate. […] 50 μL of 2× compound was added per well in duplicate and the cells were allowed to proliferate for 72 hours at 37° C.
Proliferation was measured using CellTiter-Glo® Luminescent Cell Viability Assay (Promega), which determines the number of viable cells in culture based on quantitation of the ATP present, as an indicator of metabolically active cells. The substrate was thawed and allowed to come to room temperature. After mixing the Cell Titer-Glo reagent and diluent together, 100 μL was added to each well. The plates were mixed on an orbital shaker for two minutes to induce lysis and incubated at room temperature for an additional ten minutes to allow the signal to equilibrate.

[2] = system: IL-4 stimulated CD23 upregulation in human Ramos B cells (JAK-1/JAK-3, Stat-6); assay: Assay for Ramos B-Cell Line Stimulated with IL-4 (CD23 upregulation, FACS); type: cell-based
Procedure, shortened: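 Flow cytometry of CD23 staining after 20-24 h IL-4 stimulation (50 units/mL final) of human Ramos B cells in RPMI with 5% serum. Cells, 5×10^4 per point, received compound or DMSO vehicle for 1 h at 37° C prior to stimulation.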

Compound	IC50 [1] [nM]	IC50 ([2]; Table III Example 3) [nM]	IC50 ([2]; Table III Example 3, sodium salt) [nM]
CS(=O)(=O)CS(=O)(=O)NCc1ccc(Nc2nc(Nc3cccc(S(N)(=O)=O)c3)ncc2F)cc1 [Compound I-86, N2-(3-aminosulfonyl)phenyl-5-fluoro-N4-[4-(methylsulfonylmethylsulfonylamino)methyl]phenyl-2,4-pyrimidinediamine]	224	505	
Cc1ccc(Nc2ncc(F)c(Nc3ccc(CNS(=O)(=O)CS(C)(=O)=O)cc3)n2)cc1S(N)(=O)=O [Compound I-87, N2-(3-aminosulfonyl-4-methyl)phenyl-5-fluoro-N4-[4-(methylsulfonylmethylsulfonylamino)methyl]phenyl-2,4-pyrimidinediamine]	309	251	
NS(=O)(=O)c1ccc(Nc2ncc(F)c(Nc3ccc(CNS(=O)(=O)c4cccnc4)cc3)n2)cc1 [Compound I-89, N2-(4-aminosulfonyl)phenyl-5-fluoro-N4-[4-(pyrid-3-yl)sulfonylaminomethyl]phenyl-2,4-pyrimidinediamine]	1500	448	
Cc1cnc(Nc2ccc(S(N)(=O)=O)cc2)nc1Nc1ccc(CNS(=O)(=O)c2cccnc2)cc1 [Compound I-99, N2-(4-aminosulfonyl)phenyl-5-methyl-N4-[4-(pyrid-3-yl)sulfonylaminomethyl]phenyl-2,4-pyrimidinediamine]	954	565	
Cc1ccc(Nc2ncc(F)c(Nc3cccc(CS(=O)(=O)NC4CCN(C)CC4)c3)n2)cc1S(N)(=O)=O [Compound I-107, N2-(3-Aminosulfonyl-4-methylphenyl)-5-fluoro-N4-[3-(1-methylpiperdin-4-ylaminosulfonylmethylene)phenyl]-2,4-pyrimidinediamine]	18100	2930	
CN1CCC(NS(=O)(=O)Cc2cccc(Nc3nc(Nc4cccc(S(N)(=O)=O)c4)ncc3F)c2)CC1 [Compound I-108, N2-(3-Aminosulfonylphenyl)-5-fluoro-N4-[3-(1-methylpiperdin-4-ylaminosulfonylmethylene)phenyl]-2,4-pyrimidinediamine]	25800	5160	
Cc1cnc(Nc2cccc(S(=O)(=O)NC(=O)CN)c2)nc1Nc1cccc(CNS(=O)(=O)C2CC2)c1 [Compound I-133, N2-[3-N-(2-amino-1-oxoethyl)aminosulfonyl]phenyl-N4-(3-cyclopropylsulfonylaminomethyl)phenyl-5-methyl-2,4-pyrimidinediamine hydrogen chloride salt]	1210	715	
Cc1cnc(Nc2cccc(S(=O)(=O)NC(=O)[C@@H](NC(=O)OCc3ccccc3)C(C)C)c2)nc1Nc1cccc(CNS(=O)(=O)C2CC2)c1 [Compound I-147, N2-[3-N-(Cbz-L-Val)aminosulfonyl]phenyl-N4-(3-cyclopropylsulfonylaminomethyl)phenyl-5-methyl-2,4-pyrimidinediamine sodium salt]	25100		13800
Cc1cnc(Nc2ccc(S(=O)(=O)Nc3ccccc3)cc2)nc1Nc1ccc(CNS(=O)(=O)C2CC2)cc1 [Compound I-149, N4-(4-cyclopropylsulfonylaminomethyl)phenyl-5-methyl-N2-(4-phenylaminosulfonyl)phenyl-2,4-pyrimidinediamine]	190	82.2	
Cc1cnc(Nc2ccc(S(=O)(=O)NC3CCN(C)CC3)cc2)nc1Nc1ccc(CNS(=O)(=O)C2CC2)cc1 [Compound I-151, N4-(4-cyclopropylsulfonylaminomethyl)phenyl-5-methyl-N2-[4-(1-methylpiperidin-4-yl)aminosulfonyl]phenyl-2,4-pyrimidinediamine]	1080	353	
Cc1cnc(Nc2cccc(S(=O)(=O)NC3CCN(C)CC3)c2)nc1Nc1ccc(CNS(=O)(=O)C2CC2)cc1 [Compound I-152, N4-(4-cyclopropylsulfonylaminomethyl)phenyl-5-methyl-N2-[3-(1-methylpiperidin-4-yl)aminosulfonyl]phenyl-2,4-pyrimidinediamine]	717	166	
Cc1cnc(Nc2ccc(S(=O)(=O)NCc3ccccc3)cc2)nc1Nc1ccc(CNS(=O)(=O)C2CC2)cc1 [Compound I-153, N2-(4-benzylaminosulfonyl)phenyl-N4-(4-cyclopropylsulfonylaminomethyl)phenyl-5-methyl-2,4-pyrimidinediamine]	118	80	
Cc1cnc(Nc2ccc(S(=O)(=O)Nc3ccccc3)cc2)nc1Nc1cccc(CNS(=O)(=O)C2CC2)c1 [Compound I-155, N4-(3-cyclopropylsulfonylaminomethyl)phenyl-5-methyl-N2-(4-phenylaminosulfonyl)phenyl-2,4-pyrimidinediamine]	1430	250	
Cc1cnc(Nc2cccc(S(=O)(=O)Nc3ccccc3)c2)nc1Nc1cccc(CNS(=O)(=O)C2CC2)c1 [Compound I-156, N4-(3-cyclopropylsulfonylaminomethyl)phenyl-5-methyl-N2-(3-phenylaminosulfonyl)phenyl-2,4-pyrimidinediamine]	1080	266	
Cc1cnc(Nc2ccc(S(=O)(=O)NCc3ccccc3)cc2)nc1Nc1cccc(CNS(=O)(=O)C2CC2)c1 [Compound I-157, N2-(4-benzylaminosulfonyl)phenyl-N4-(3-cyclopropylsulfonylaminomethyl)phenyl-5-methyl-2,4-pyrimidinediamine]	1100	250	
Cc1cnc(Nc2cccc(S(=O)(=O)NCc3ccccc3)c2)nc1Nc1cccc(CNS(=O)(=O)C2CC2)c1 [Compound I-158, N2-(3-benzylaminosulfonyl)phenyl-N4-(3-cyclopropylsulfonylaminomethyl)phenyl-5-methyl-2,4-pyrimidinediamine]	531	300	
Cc1cnc(Nc2ccc(S(=O)(=O)NC3CCN(C)CC3)cc2)nc1Nc1cccc(CNS(=O)(=O)C2CC2)c1 [Compound I-159, N4-(3-cyclopropylsulfonylaminomethyl)phenyl-5-methyl-N2-[4-(1-methylpiperidin-4-yl)aminosulfonyl]phenyl-2,4-pyrimidinediamine]	7960	539	
Cc1cnc(Nc2cccc(S(=O)(=O)NC3CCN(C)CC3)c2)nc1Nc1cccc(CNS(=O)(=O)C2CC2)c1 [Compound I-160, N4-(3-cyclopropylsulfonylaminomethyl)phenyl-5-methyl-N2-[3-(1-methylpiperidin-4-yl)aminosulfonyl]phenyl-2,4-pyrimidinediamine]	3960	242	
Cc1cnc(Nc2ccc(S(=O)(=O)NCc3ccncc3)cc2)nc1Nc1ccc(CNS(=O)(=O)C2CC2)cc1 [Compound I-168, N4-(4-cyclopropylsulfonylaminomethyl)phenyl-5-methyl-N2-[4-(4-pyridylmethyl)aminosulfonyl]phenyl-2,4-pyrimidinediamine]	347	278	
Cc1cnc(Nc2ccc(S(=O)(=O)Nc3cccnc3)cc2)nc1Nc1ccc(CNS(=O)(=O)C2CC2)cc1 [Compound I-171, N4-(4-cyclopropylsulfonylaminomethyl)phenyl-5-methyl-N2-[4-(3-pyridyl)aminosulfonyl]phenyl-2,4-pyrimidinediamine]	42300	19500	
